Measurements taken from PubChem BioAssay (NCI).
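All cell lines were grown in 96-well plates and treated with compound for 48 hours. The concentration for 50% growth inhibition is given as GI50. Definition used: TGI = concentration required for complete inhibition of growth.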

Key:
Test in all cases: inhibition of tumour cell growth, NCI panel, 48 h
[1] = test system: ACHN renal
[2] = test system: SF-268 CNS
[3] = test system: HCT-15 colon
[4] = test system: MALME-3M melanoma
[5] = test system: IGROV1 ovarian
[6] = test system: HT29 colon
[7] = test system: SK-MEL-28 melanoma
[8] = test system: HOP-92 NSCLC
[9] = test system: UACC-62 melanoma
[10] = test system: OVCAR-8 ovarian
[11] = test system: SF-295 CNS
[12] = test system: TK-10 renal
[13] = test system: SN12C renal
[14] = test system: A549 NSCLC
[15] = test system: 786-0 renal
[16] = test system: OVCAR-3 ovarian
[17] = test system: BT-549 breast
[18] = test system: RXF 393 renal
[19] = test system: MCF7 breast
[20] = test system: HCT-116 colon
[21] = test system: PC-3 prostate
[22] = test system: SNB-75 CNS
[23] = test system: U251 CNS
[24] = test system: LOX IMVI melanoma
[25] = test system: UACC-257 melanoma
[26] = test system: NCI-H23 lung
[27] = test system: SK-MEL-2 melanoma
[28] = test system: SW-620 colon

CC1(C)CCC2(CC1)N[C@@H](C(=O)N[C@@H]1CC[C@@H](C(N)=O)OC1)[C@H](c1ccnc(Cl)c1F)[C@]21C(=O)Nc2cc(Cl)ccc21
GI50 [1]: 0.139 µM
TGI [1]: 2.28 µM
GI50 [2]: 3.5 µM
TGI [2]: 19.1 µM
GI50 [3]: 2.88 µM
TGI [3]: 10.1 µM
GI50 [4]: 0.0482 µM
TGI [4]: 2.03 µM
GI50 [5]: 0.793 µM
TGI [5]: 6.13 µM
GI50 [6]: 2.22 µM
TGI [6]: 6.01 µM
GI50 [7]: 1.95 µM
TGI [7]: 4.06 µM
GI50 [8]: 1.78 µM
TGI [8]: 4.79 µM
GI50 [9]: 0.0556 µM
TGI [9]: 2.05 µM
GI50 [10]: 3.92 µM
TGI [10]: 27.7 µM
GI50 [11]: 2.14 µM
TGI [11]: 5.04 µM
GI50 [12]: 3.13 µM
TGI [12]: 15.7 µM
GI50 [13]: 3.13 µM
TGI [13]: 12 µM
GI50 [14]: 0.26 µM
TGI [14]: 13.1 µM
GI50 [15]: 2.77 µM
TGI [15]: 8.51 µM
GI50 [16]: 2.75 µM
TGI [16]: 8.2 µM
GI50 [17]: 2.45 µM
TGI [17]: 7.52 µM
GI50 [18]: 2.26 µM
TGI [18]: 5.67 µM
GI50 [19]: 0.037 µM
TGI [19]: 2.28 µM
GI50 [20]: 0.07 µM
TGI [20]: 6.96 µM
GI50 [21]: 2.26 µM
TGI [21]: 6.25 µM
GI50 [22]: 2.17 µM
TGI [22]: 9.38 µM
GI50 [23]: 2.8 µM
TGI [23]: 9.64 µM
GI50 [24]: 0.124 µM
TGI [24]: 2 µM
GI50 [25]: 0.19 µM
TGI [25]: 2.53 µM
GI50 [26]: 3.73 µM
TGI [26]: 15.4 µM
GI50 [27]: 2.16 µM
TGI [27]: 5.02 µM
GI50 [28]: 3.81 µM
TGI [28]: 23.1 µM
